Assay results: PubChem BioAssay AID2060611 (Molecular Pharmacology Branch, DTP, NCI, 2025)

Tested on: 628569-122-R-J1-PDC complex spheroid viability
Test: Anticancer human tumor 628569-122-R-J1-PDC patient-derived head and neck squamous carcinoma cell line growth inhibition [CLK]
Settings: for IC50: curve of first compound; for viability, T/C: stronger effect = lower value
Procedure, shortened: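 Patient-derived tumor cells grown as complex spheroids with HUVEC endothelial cells and mesenchymal stem cells, treated with drug combinations. Concentrations descend in half-log steps from near clinical Cmax, or from 10 microM if Cmax unknown.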

[1] = second compound 0.0316 µM, first compound 0.000949 µM
[2] = second compound 0.0316 µM, first compound 0.003 µM
[3] = second compound 0.0316 µM, first compound 0.00949 µM
[4] = second compound 0.0316 µM, first compound 0.03 µM
[5] = second compound 0.0316 µM, first compound 0.0949 µM
[6] = second compound 0.0316 µM, first compound 0.3 µM
[7] = second compound 0.1 µM, first compound 0.000949 µM
[8] = second compound 0.1 µM, first compound 0.003 µM
[9] = second compound 0.1 µM, first compound 0.00949 µM
[10] = second compound 0.1 µM, first compound 0.03 µM
[11] = second compound 0.1 µM, first compound 0.0949 µM
[12] = second compound 0.1 µM, first compound 0.3 µM
[13] = second compound 0.316 µM, first compound 0.000949 µM
[14] = second compound 0.316 µM, first compound 0.003 µM
[15] = second compound 0.316 µM, first compound 0.00949 µM
[16] = second compound 0.316 µM, first compound 0.03 µM
[17] = second compound 0.316 µM, first compound 0.0949 µM
[18] = second compound 0.316 µM, first compound 0.3 µM
[19] = second compound 1 µM, first compound 0.000949 µM
[20] = second compound 1 µM, first compound 0.003 µM
[21] = second compound 1 µM, first compound 0.00949 µM
[22] = second compound 1 µM, first compound 0.03 µM
[23] = second compound 1 µM, first compound 0.0949 µM
[24] = second compound 1 µM, first compound 0.3 µM
[25] = second compound 3.16 µM, first compound 0.000949 µM
[26] = second compound 3.16 µM, first compound 0.003 µM
[27] = second compound 3.16 µM, first compound 0.00949 µM
[28] = second compound 3.16 µM, first compound 0.03 µM
[29] = second compound 3.16 µM, first compound 0.0949 µM
[30] = second compound 3.16 µM, first compound 0.3 µM
[31] = second compound 10 µM, first compound 0.000949 µM
[32] = second compound 10 µM, first compound 0.003 µM
[33] = second compound 10 µM, first compound 0.00949 µM
[34] = second compound 10 µM, first compound 0.03 µM
[35] = second compound 10 µM, first compound 0.0949 µM
[36] = second compound 10 µM, first compound 0.3 µM
[37] = second compound 0.0316 µM, first compound 0.0316 µM
[38] = second compound 0.0316 µM, first compound 0.1 µM
[39] = second compound 0.0316 µM, first compound 0.316 µM
[40] = second compound 0.0316 µM, first compound 1 µM
[41] = second compound 0.0316 µM, first compound 3.16 µM
[42] = second compound 0.0316 µM, first compound 10 µM
[43] = second compound 0.1 µM, first compound 0.0316 µM
[44] = second compound 0.1 µM, first compound 0.1 µM
[45] = second compound 0.1 µM, first compound 0.316 µM
[46] = second compound 0.1 µM, first compound 1 µM
[47] = second compound 0.1 µM, first compound 3.16 µM
[48] = second compound 0.1 µM, first compound 10 µM
[49] = second compound 0.316 µM, first compound 0.0316 µM
[50] = second compound 0.316 µM, first compound 0.1 µM
[51] = second compound 0.316 µM, first compound 0.316 µM
[52] = second compound 0.316 µM, first compound 1 µM
[53] = second compound 0.316 µM, first compound 3.16 µM
[54] = second compound 0.316 µM, first compound 10 µM
[55] = second compound 1 µM, first compound 0.0316 µM
[56] = second compound 1 µM, first compound 0.1 µM
[57] = second compound 1 µM, first compound 0.316 µM
[58] = second compound 1 µM, first compound 1 µM
[59] = second compound 1 µM, first compound 3.16 µM
[60] = second compound 1 µM, first compound 10 µM
[61] = second compound 3.16 µM, first compound 0.0316 µM
[62] = second compound 3.16 µM, first compound 0.1 µM
[63] = second compound 3.16 µM, first compound 0.316 µM
[64] = second compound 3.16 µM, first compound 1 µM
[65] = second compound 3.16 µM, first compound 3.16 µM
[66] = second compound 3.16 µM, first compound 10 µM
[67] = second compound 10 µM, first compound 0.0316 µM
[68] = second compound 10 µM, first compound 0.1 µM
[69] = second compound 10 µM, first compound 0.316 µM
[70] = second compound 10 µM, first compound 1 µM
[71] = second compound 10 µM, first compound 3.16 µM
[72] = second compound 10 µM, first compound 10 µM
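Note: spheroids exposed to agents for seven days before readout.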
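Throughout, for viability, T/C: 100% = DMSO vehicle control viability.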

CC(C)CC(NC(=O)C(Cc1ccccc1)NC(=O)c1cnccn1)B(O)O (stereo not drawn) + CN1CCN(c2cc(C(=O)Nc3cc4cc(-c5cnn(C)c5)ccc4cn3)ccn2)CC1
IC50 (second compound 0.0316 µM): 4.41 nM
IC50 (second compound 0.1 µM): 1.68 nM
IC50 (second compound 0.316 µM): < 0.949 nM
IC50 (second compound 1 µM): < 0.949 nM
IC50 (second compound 3.16 µM): < 0.949 nM
IC50 (second compound 10 µM): < 0.949 nM
viability, T/C [1]: 83.3%
viability, T/C [2]: 70.2%
viability, T/C [3]: 9.85%
viability, T/C [4]: 8.4%
viability, T/C [5]: 6.4%
viability, T/C [6]: 4.25%
viability, T/C [7]: 62.6%
viability, T/C [8]: 37.3%
viability, T/C [9]: 7.61%
viability, T/C [10]: 6.34%
viability, T/C [11]: 6.04%
viability, T/C [12]: 5.02%
viability, T/C [13]: 37.8%
viability, T/C [14]: 4.9%
viability, T/C [15]: 10.6%
viability, T/C [16]: 4.39%
viability, T/C [17]: 4.89%
viability, T/C [18]: 2.72%
viability, T/C [19]: 9.15%
viability, T/C [20]: 8.04%
viability, T/C [21]: 4.76%
viability, T/C [22]: 6.26%
viability, T/C [23]: 7.32%
viability, T/C [24]: 5.71%
viability, T/C [25]: 6.67%
viability, T/C [26]: 6.69%
viability, T/C [27]: 5.84%
viability, T/C [28]: 5.55%
viability, T/C [29]: 5.83%
viability, T/C [30]: 4.09%
viability, T/C [31]: 8.8%
viability, T/C [32]: 1.66%
viability, T/C [33]: 2.36%
viability, T/C [34]: 1.91%
viability, T/C [35]: 4.23%
viability, T/C [36]: 0.93%

C=C(F)C(=O)N1CCN(c2nc(OCC3CCCN3C)nc3c2CCN(c2cccc4cccc(Cl)c24)C3)CC1CC#N (stereo not drawn) + CN1CCN(c2cc(C(=O)Nc3cc4cc(-c5cnn(C)c5)ccc4cn3)ccn2)CC1
IC50 (second compound 0.0316 µM): 7260 nM
IC50 (second compound 0.1 µM): 4560 nM
IC50 (second compound 0.316 µM): < 31.6 nM
IC50 (second compound 1 µM): < 31.6 nM
IC50 (second compound 3.16 µM): < 31.6 nM
IC50 (second compound 10 µM): < 31.6 nM
viability, T/C [37]: 102%
viability, T/C [38]: 80.5%
viability, T/C [39]: 98.3%
viability, T/C [40]: 108%
viability, T/C [41]: 113%
viability, T/C [42]: 30.6%
viability, T/C [43]: 64.3%
viability, T/C [44]: 67.4%
viability, T/C [45]: 64.1%
viability, T/C [46]: 62.7%
viability, T/C [47]: 87.9%
viability, T/C [48]: 8.57%
viability, T/C [49]: 35%
viability, T/C [50]: 37.6%
viability, T/C [51]: 34.7%
viability, T/C [52]: 32.2%
viability, T/C [53]: 39.1%
viability, T/C [54]: 2.52%
viability, T/C [55]: 7.05%
viability, T/C [56]: 4.72%
viability, T/C [57]: 5.61%
viability, T/C [58]: 5%
viability, T/C [59]: 5.11%
viability, T/C [60]: 1.51%
viability, T/C [61]: 6.63%
viability, T/C [62]: 4.67%
viability, T/C [63]: 7.01%
viability, T/C [64]: 6.75%
viability, T/C [65]: 3.34%
viability, T/C [66]: 0.55%
viability, T/C [67]: 1.82%
viability, T/C [68]: 2.41%
viability, T/C [69]: 3.57%
viability, T/C [70]: 3.3%
viability, T/C [71]: 0.98%
viability, T/C [72]: 1.32%

C=CC(=O)Nc1cc(Nc2nccc(-c3cn(C)c4ccccc34)n2)c(OC)cc1N(C)CCN(C)C + CN1CCN(c2cc(C(=O)Nc3cc4cc(-c5cnn(C)c5)ccc4cn3)ccn2)CC1
IC50 (second compound 0.0316 µM): > 300 nM
IC50 (second compound 0.1 µM): 102 nM
IC50 (second compound 0.316 µM): < 0.949 nM
IC50 (second compound 1 µM): < 0.949 nM
IC50 (second compound 3.16 µM): < 0.949 nM
IC50 (second compound 10 µM): < 0.949 nM
viability, T/C [1]: 98.5%
viability, T/C [2]: 112%
viability, T/C [3]: 94.6%
viability, T/C [4]: 89.1%
viability, T/C [5]: 98.4%
viability, T/C [6]: 59.1%
viability, T/C [7]: 56.9%
viability, T/C [8]: 68.1%
viability, T/C [9]: 70.1%
viability, T/C [10]: 57%
viability, T/C [11]: 52.9%
viability, T/C [12]: 19.4%
viability, T/C [13]: 35.5%
viability, T/C [14]: 44.2%
viability, T/C [15]: 38.6%
viability, T/C [16]: 39%
viability, T/C [17]: 32.9%
viability, T/C [18]: 14.3%
viability, T/C [19]: 5.92%
viability, T/C [20]: 6.94%
viability, T/C [21]: 10.9%
viability, T/C [22]: 5.22%
viability, T/C [23]: 7.08%
viability, T/C [24]: 5.76%
viability, T/C [25]: 5.99%
viability, T/C [26]: 7.83%
viability, T/C [27]: 7.06%
viability, T/C [28]: 9.16%
viability, T/C [29]: 6.05%
viability, T/C [30]: 4.8%
viability, T/C [31]: 2.23%
viability, T/C [32]: 2.23%
viability, T/C [33]: 4.31%
viability, T/C [34]: 2.44%
viability, T/C [35]: 2.36%
viability, T/C [36]: 4.04%

Nc1ccccc1NC(=O)c1ccc(CNC(=O)OCc2cccnc2)cc1 + CN1CCN(c2cc(C(=O)Nc3cc4cc(-c5cnn(C)c5)ccc4cn3)ccn2)CC1
IC50 (second compound 0.0316 µM): 7610 nM
IC50 (second compound 0.1 µM): 4780 nM
IC50 (second compound 0.316 µM): < 31.6 nM
IC50 (second compound 1 µM): < 31.6 nM
IC50 (second compound 3.16 µM): < 31.6 nM
IC50 (second compound 10 µM): < 31.6 nM
viability, T/C [37]: 93.5%
viability, T/C [38]: 103%
viability, T/C [39]: 98.4%
viability, T/C [40]: 162%
viability, T/C [41]: 153%
viability, T/C [42]: 27.7%
viability, T/C [43]: 54.7%
viability, T/C [44]: 63%
viability, T/C [45]: 76.5%
viability, T/C [46]: 90.9%
viability, T/C [47]: 91.7%
viability, T/C [48]: 4.63%
viability, T/C [49]: 40.1%
viability, T/C [50]: 30.8%
viability, T/C [51]: 37.5%
viability, T/C [52]: 30.2%
viability, T/C [53]: 7.28%
viability, T/C [54]: 4.48%
viability, T/C [55]: 12.7%
viability, T/C [56]: 7.04%
viability, T/C [57]: 7.87%
viability, T/C [58]: 6.5%
viability, T/C [59]: 7%
viability, T/C [60]: 7.23%
viability, T/C [61]: 7.85%
viability, T/C [62]: 3.97%
viability, T/C [63]: 7.25%
viability, T/C [64]: 5.7%
viability, T/C [65]: 8.72%
viability, T/C [66]: 6.19%
viability, T/C [67]: 4.78%
viability, T/C [68]: 5.48%
viability, T/C [69]: 5.47%
viability, T/C [70]: 5.41%
viability, T/C [71]: 10%
viability, T/C [72]: 1.39%
